Measured values: patent publication US20240043943A1, “METHODS AND COMPOSITIONS FOR PROTEASE REPORTER ASSAYS AND MODULATORS” (712 NORTH, INC., priority 2021, published 2024)
“Also recorded” adds a separate entry of the source. Like-named read-outs stand apart in the source and are kept apart here.

Columns and labels:
Luke-TEV reporter [1] = test: Luke-TEV control reporter bioluminescence assay in Hek293T cells; type: cell-based, human; settings: Luke-TEV cells, 30 minutes incubation
Text: (§1) Luke-S1 is targeted to the mitochondrial inner membrane by an 86 amino acid portion of OPA1's […] with the protein sequence SEQ ID NO: 27 and the DNA sequence SEQ ID ID NO:28.

OMA1 protease [2] = target: T1, OMA1 protease (Homo sapiens, UniProt Q96E52); test: Rep#01 OMA1 reporter bioluminescence assay in Hek293T cells; type: cell-based; design: The OMA1 enzyme is dormant under physiological cell culture conditions in these cells; endogenous in cells; host or cells: Hek293T cells, transiently or stably (Luke-S1 line, ATCC PTA-127022) expressing reporter #15; settings: 30 minutes exposure, CCCP 10 μM
T1 sequence (Q96E52 144-524): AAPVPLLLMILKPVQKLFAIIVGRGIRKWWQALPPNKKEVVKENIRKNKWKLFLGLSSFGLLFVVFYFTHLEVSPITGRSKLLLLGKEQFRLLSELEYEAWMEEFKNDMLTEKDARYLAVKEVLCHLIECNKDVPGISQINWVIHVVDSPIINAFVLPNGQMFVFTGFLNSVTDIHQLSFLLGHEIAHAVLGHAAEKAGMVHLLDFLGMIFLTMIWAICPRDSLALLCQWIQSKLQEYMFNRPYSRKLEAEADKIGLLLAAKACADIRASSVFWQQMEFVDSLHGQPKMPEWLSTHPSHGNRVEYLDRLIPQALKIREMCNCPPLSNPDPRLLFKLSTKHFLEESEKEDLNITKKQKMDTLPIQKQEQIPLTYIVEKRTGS
Text: Example 1 provides a nonlimiting example of generation and use of a reporter of present invention and illustrates its function. To this end, generation and use of reporter gene #01 (SEQ ID NO: 01) and reporter gene #15 (SEQ ID NO: 15) are described and their function compared to each other. The general design of a reporter of present invention is illustrated in FIG. 1A and its working principle in FIG. 1B. A reporter in general, and reporter gene #01 and reporter gene #15 in particular, can be generated as follows. DNA sequences of a reporter may be codon-optimized in silico or by any other way for expression in a suitable host. DNA sequences of reporter genes #01 and #15 were codon-optimized for expression in humans (SEQ ID NO: 02 and SEQ ID NO: 16, respectively). The (optimized) sequences were synthesized and cloned into a pcDNA3.1 expression vector under the control of a CMV promotor (see FIG. 1 for an illustration of such vector). Of course, an expression system and a host should match for best results. The host in this example were Hek293T cells, which were maintained under standard culture conditions in DMEM with 10% Fetal Bovine Serum and 1% Pen/Strep. For an experiment, Hek293T cells were seeded in opaque white tissue-culture treated 96-well plates at 80% confluency and transfected with vectors carrying reporter gene #01 and reporter gene #15 and 24 hours later incubated for 30 minutes at 37° C. in OptiMEM or in OptiMEM with 10 μM CCCP. After 30 minutes, the OptiMEM cell-culture media was replaced with luciferase substrate (furimazine, Promega) diluted 1:100 in OptiMEM, and bioluminescence was measured with a Fluoroskan Ascent FL (Thermo Scientific) using a 517 nm single-pass filter and 200 milliseconds integration time. […]
Example 5 illustrates how mitochondrial toxicity can be measured with reporter and assays of present invention. […] Hek293T cells expressing reporter #01 and #15 were exposed to CCCP, tipranavir and sorafenib (in OptiMEM) for 30 minutes before the medium was replaced with furimazine (1:100), and bioluminescence measured.

OMA1 protease [3] = target: T1, OMA1 protease; test: Rep#15 / Luke-S1 OMA1 reporter bioluminescence assay in Hek293T cells; type: cell-based; design: The OMA1 enzyme is dormant under physiological cell culture conditions in these cells; endogenous in cells; host or cells: Hek293T cells, transiently or stably (Luke-S1 line, ATCC PTA-127022) expressing reporter #15; settings: for bioluminescence signal of reporter #15: Hek293T, 30 minutes exposure, CCCP 10 μM
Text: Example 1 provides a nonlimiting example of generation and use of a reporter of present invention and illustrates its function. To this end, generation and use of reporter gene #01 (SEQ ID NO: 01) and reporter gene #15 (SEQ ID NO: 15) are described and their function compared to each other. The general design of a reporter of present invention is illustrated in FIG. 1A and its working principle in FIG. 1B. A reporter in general, and reporter gene #01 and reporter gene #15 in particular, can be generated as follows. DNA sequences of a reporter may be codon-optimized in silico or by any other way for expression in a suitable host. DNA sequences of reporter genes #01 and #15 were codon-optimized for expression in humans (SEQ ID NO: 02 and SEQ ID NO: 16, respectively). The (optimized) sequences were synthesized and cloned into a pcDNA3.1 expression vector under the control of a CMV promotor (see FIG. 1 for an illustration of such vector). Of course, an expression system and a host should match for best results. The host in this example were Hek293T cells, which were maintained under standard culture conditions in DMEM with 10% Fetal Bovine Serum and 1% Pen/Strep. For an experiment, Hek293T cells were seeded in opaque white tissue-culture treated 96-well plates at 80% confluency and transfected with vectors carrying reporter gene #01 and reporter gene #15 and 24 hours later incubated for 30 minutes at 37° C. in OptiMEM or in OptiMEM with 10 μM CCCP. After 30 minutes, the OptiMEM cell-culture media was replaced with luciferase substrate (furimazine, Promega) diluted 1:100 in OptiMEM, and bioluminescence was measured with a Fluoroskan Ascent FL (Thermo Scientific) using a 517 nm single-pass filter and 200 milliseconds integration time. […] Reporter #01 comprises a large part of OPA1's amino-terminus as mitochondrial targeting sequence, which is cleaved by the mitochondrial processing peptidase upon mitochondrial import (see Example 2). Reporter #15 was initially envisioned as a control for reporter #01. Reporter #15 therefore lacks the first 66 amino acids of reporter #01 believed to be essential for mitochondrial import.
Example 5 illustrates how mitochondrial toxicity can be measured with reporter and assays of present invention. The OMA1-OPA1 pathway basically serves as a “canary-in-the-coalmine” for a mitochondrial deterioration. […] Hek293T cells expressing reporter #01 and #15 were exposed to CCCP, tipranavir and sorafenib (in OptiMEM) for 30 minutes before the medium was replaced with furimazine (1:100), and bioluminescence measured.
The following non-limiting examples illustrate in more details the in vivo assessment of OMA1 protease activity utilizing an artificial luciferase reporter of present invention stably expressed in Hek293T cells.

reporter #01 = test: Rep#01 reporter hydrolysis in Hek293T cells by Western blot; type: cell-based, human; settings: 10 μM CCCP, 30 minutes
Protocol: (§2) Example 2 refers to FIG. 4 and illustrates hydrolysis of reporter #01 and reporter #15. For this example, transfected cells were selected by puromycin. Reporter cells were exposed for 30 minutes to 10 μM CCCP before being harvested in RIPA buffer and subjected to 12% SDS-PAGE followed by Western-blotting. […] Full-length reporter #01 has a predicted size of 39.6 kDa but was not detected in Western blots. […] At the same time, reporter #15 is not processed upon import, but migrated at its expected size of 31.9 kDa. (Example 7 establishes mitochondrial import by showing co-migration of reporter #15 with OPA1 and OMA1 in mitochondria-enriched fractions.) Reporter #15 appears to be more abundant and stable, which may explain its better performance. […] This provides additional evidence that reporter #15 is indeed localized in mitochondria where it is recognized and hydrolyzed by OMA1. […] Therefore, phenanthroline was used as a positive control in the reporter assay. If reporter #15 indeed is cleaved by OMA1, then phenanthroline should prevent this at least to a certain extend by inhibiting OMA1 and accordingly preserving the signal. Hek293T cells were transfected with reporter gene #15 as described in the preceding example. […] After 30 minutes, the medium was replaced with furimazine (1:100 in OptiMEM), and bioluminescence measured as described in Example 1.

Luke-S1 reporter = test: Rep#15 / Luke-S1 reporter cleavage in Hek293T cells by Western blot; type: cell-based, human
Protocol: For this example, transfected cells were selected by puromycin. […] […] If reporter #15 indeed is cleaved by OMA1, then phenanthroline should prevent this at least to a certain extend by inhibiting OMA1 and accordingly preserving the signal. Hek293T cells were transfected with reporter gene #15 as described in the preceding example. After 24 hours, the transfected cells were incubated with 500 μM phenanthroline in OptiMEM. After 1 hour of pretreatment, CCCP in OptiMEM/phenanthroline was added. to a final concentration of 10 μM CCCP and cells incubated for another 30 minutes at 37° C. After 30 minutes, the medium was replaced with furimazine (1:100 in OptiMEM), and bioluminescence measured as described in Example 1.
(§3) OPA1 hydrolysis can be monitored by Western blotting. […] The predicted size of full-length Luke-S1 is 31.8 kDa.

OPA1 [4] = test: OPA1 hydrolysis in Hek293T cells by Western blot; type: cell-based, human; settings: 3 μM CCCP, 30 minutes
Text: as §3

Luke-TEV reporter [5] = test: Luke-TEV reporter cleavage in Hek293T cells by Western blot; type: cell-based, human; settings: 3 μM CCCP or 100 nM valinomycin
Text: as §3

[6] = target: T2, Luke (native NanoLuc enzyme) (Oplophorus gracilirostris, UniProt Q9GV45, A31E/A60N/A81I/F95D/I117V/K70R/L54V/L99Q/M102K/N193R/P142E/Q151K/Q38R/Q45L/V71I/Y165I); test: Luke (native NanoLuc) control cell bioluminescence assay in Hek293T cells; type: cell-based; settings: 30 minutes incubation
T2 construct: expressed in transfected cells
T2 sequence (Q9GV45 with tags, fused parts or gaps with the stated changes): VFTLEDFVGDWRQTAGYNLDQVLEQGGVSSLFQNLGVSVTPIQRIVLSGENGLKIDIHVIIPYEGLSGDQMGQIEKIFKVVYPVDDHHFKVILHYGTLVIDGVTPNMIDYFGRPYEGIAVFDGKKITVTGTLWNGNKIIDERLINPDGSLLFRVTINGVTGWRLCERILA
Text: as §1

OPA1 [7] = settings: literature; cited from earlier work
OMA1 protease [8] = target: T1, OMA1 protease; settings: literature; cited from earlier work
OMA1 protease [9] = target: T1, OMA1 protease; test: Rep#15 assay with phenanthroline preincubation before CCCP (OMA1 inhibitor control); type: cell-based; design: The OMA1 enzyme is dormant under physiological cell culture conditions in these cells; endogenous in cells; host or cells: Hek293T cells, transiently or stably (Luke-S1 line, ATCC PTA-127022) expressing reporter #15; settings: 500 μM phenanthroline 1 hour, then 10 μM CCCP 30 minutes
Protocol: as §2

mitochondria = settings: FDA labels, cited from earlier work

N#CC(C#N)=NNc1cccc(Cl)c1 [CCCP, carbonyl cyanide m-chlorophenyl hydrazone]
EC50 (Luke-TEV reporter [1]): 566 nM | bioluminescence signal of reporter #01 (OMA1 protease [2]): significantly reduced bioluminescence | bioluminescence signal of reporter #15 (OMA1 protease [3]): significantly reduced or substantially absent luciferase activity; also recorded: abolished; also recorded: significantly reduced bioluminescence | processing of reporter #01 in Western blot (reporter #01): led to processing | cleavage of the Luke-S1 reporter in Western blots (Luke-S1 reporter; 3 μM CCCP or 100 nM valinomycin): induced cleavage of the Luke-S1 reporter; also recorded: induced Luke-S1 and Luke-TEV cleavage | processing of reporter #15 in Western blot (Luke-S1 reporter; 10 μM CCCP, 30 minutes): led to processing | L-OPA1 proteolysis in Western blots (OPA1 [4]): complete disappearance of L-OPA1 isoforms; also recorded: complete L-OPA1 proteolysis | cleavage of the Luke-TEV reporter in Western blots (Luke-TEV reporter [5]): cleaved; also recorded: induced Luke-S1 and Luke-TEV cleavage | bioluminescence of Luke cells in dose-response [6]: completely eliminated

N.N.[Cl][Pt][Cl] [cisplatin]
OPA1 cleavage (OPA1 [7]): can promote OPA1 cleavage

c1cnc2c(c1)ccc1cccnc12 [phenanthroline]
effect on OMA1 protease (OMA1 protease [8]): can inhibit OMA1 protease in vitro | bioluminescence signal of reporter #15 after CCCP with inhibitor pretreatment (OMA1 protease [9]): prevented reporter #15 deactivation; also recorded: largely preserved

CNC(=O)c1cc(Oc2ccc(NC(=O)Nc3ccc(Cl)c(C(F)(F)F)c3)cc2)ccn1 [sorafenib, Sorafenib]
OPA1 cleavage (OPA1 [7]): can promote OPA1 cleavage | bioluminescence signal of reporter #01 (OMA1 protease [2]): significantly reduced bioluminescence | bioluminescence signal of reporter #01 (OMA1 protease [2]; listed as Sorafenib): comparable effects | bioluminescence signal of reporter #15 (OMA1 protease [3]): significantly reduced signal; also recorded: significantly reduced bioluminescence | OMA1 modulating properties (OMA1 protease [3]; drugs identified with the OMA1 assays (FIG. 17, FIG. 10)): OMA1 modulating properties | mitochondrial toxicity (mitochondria): exhibit mitochondrial toxicity

CCC[C@@]1(CCc2ccccc2)CC(O)=C([C@H](CC)c2cccc(NS(=O)(=O)c3ccc(C(F)(F)F)cn3)c2)C(=O)O1 [tipranavir]
mitochondrial toxicity (mitochondria): exhibit mitochondrial toxicity | mitochondrial toxicity (mitochondria; listed as Tipranavir): cause mitochondrial toxicity
